Results as given in patent US12083084B2, “Method for enhancing energy production and metabolism in cells” (REPLICON HEALTH OY, priority 2013, dated 2024).
Values joined by “and” are separate entries in the source; they are usually repeats but may differ in a detail not shown here. Identical values can stand only once.

Legend:
[1] = First set of clinical in vivo experiments, fasting blood test (Example 2.1); set-up: species or system human; conditions: for Headache after stopping twice a day administration: subjects S1-S3 (N = 3), 20-48 hours after last administration
Procedure: In the first set of experiments presented in Example 2.1 all the blood measurements were conducted next day after last administration of DGAcs. In the longer experiments doses (3-5 mg/kg) were typically taken once a day (preferably in the evening before going to bed). In shorter 1-4 day experiments doses were taken twice a day, in the morning and before going to bed. In all experiments in Example 2.2 the last DGAcs dose was double in size (some 8 mg/kg), and it was taken in the same morning as the collection of blood samples. Relatively high dose and short time to measurement was chosen in order to see clearer dose response in gene expression from peripheral leukocytes, and also from collected plasma samples.
Eight (8) persons completed controlled clinical testing with standard 10-12 hour fasting diet (f) blood test (sample analytics by United Medix Laboratories, Finland). There were four different types of clinical tests: first a 3 week test with low dose of DGA (N=3), secondly one 11 day test with bigger dose (N=1), and finally a 4 day test with high dose (N=4) and with low dose of DGA (N=2). Subjects 1 and 4 (in table 3) did the first three week test and then some months later also the separate 4 day test.
Daily doses varied from 3-4 mg/kg/day in 3 week test to 6 mg/kg twice a day in 4 day test. General rule in the studies was that the shorter the period the higher the dose. In three week clinical tests fasting blood standard lipid panel and other basic readings were measured at the beginning and at the end of the test period.
In the 4 day tests very wide fasting blood panel consisting of 25 different metrics was measured (see table 3 below), and additionally for some participants full blood count to measure more precise effect on erythrocytes and hemoglobin was carried out.
Unlike in hepatocytes study (Example 1) clinical experiments were conducted in a fasting diet situation. Challenges for obtaining meaningful health indications from DGAcs administration arises from the fact that the study persons (aged 41-73) were all healthy volunteers, i.e. the blood values were mostly at very good levels, and thus improvements from the control are hard to achieve. Nevertheless the results from clinical testing show clear signs on the efficacy of DGA in improving systemic redox state of especially the cardiovascular system and also clear indications of increased overall metabolic flux. Specific markers for functioning of liver, kidneys, pancreas and spleen show improvement in general (see Table 4).

rat cortical neurons = experiment: Protection against NMDA-induced excitotoxity; type: cell-based
Procedure: Cell culture. Cortical neurons were dissected from P1 rats and cultured in 96-well plates up to 7 days in the medium containing: neurobasal medium, 1.5% B27 supplement, 1 mM L-glutamine, penicillin/streptomycin.
Cell Viability/Cytotoxicity. Cell Viability was Detected by LDH Tests Like in Examples 1.1-1.2.
Cell treatment: concentration of DGAcs (10, 50 and 100 μg/ml) was added into cell culture medium at 4 DIV. After 24 h (at 5 DIV) 25% of medium was changed to fresh containing 1.5× concentration of DGAcs. Same treatment (change 25% with 1.5× concentration) was repeated at 6 DIV. The cells were transferred into Mg^2+-free Locke's buffer containing the same concentrations of DGAcs immediately before imaging experiments (at 7 DIV). For controls the same amount of medium was changed without addition of DGAcs.
In analyzing the results from the test set up starting at 7 DIV with 1 h NMDA stimulation (and 23 h follow up period), separate viability loss caused by CR can be taken into account by indexing 25 μM NMDA and 50 μM NMDA groups with the results of 0 NMDA control (see FIG. 14a). […] Even without correction for CR induced viability loss, DGAcs treatment induces very clear protection against NMDA-induced excitotoxity in 50 μM NMDA group (see FIG. 14b: “Viability after 24 hours with 1 h NMDA stimulation, indexed to 0 NMDA”)

[2] = 4 day, 5-6 mg/kg twice a day, healthy lean subjects S1-S4, fasting blood, change from zero control
[3] = 4 day, 5-6 mg/kg twice a day, healthy lean subjects S1-S4, fasting blood, change from zero control, listed as DGA calcium salt
[4] = S4 (healthy person), after 4 day test, fasting blood

For `O=C(O)[C@H](O)CO` [DGA, D-glyceric acid], the “fS-Trigly, increases in blood triglycerides” value ([1]; 5 subjects) was “Observed 25-50% increases in blood triglycerides”, the “Headache after stopping twice a day administration” value ([1]; 4 day test) was “some symptoms of headache after 20-48” and the “fS-Lactate dehydrogenase (LDH), average decline” value ([1]; healthy volunteers (N = 3), 4 day test) was “some 4%. (Subject 3”. For the same compound, the “fS-Na (Sodium), average decline” value ([1]; healthy volunteers (N = 4), 4 day test) was roughly 1.5%, the “fS-Urate (uric acid), average decline” value ([1]; healthy volunteers (N = 6), 4 day test) was “test; average decline some 6%” and the “fS-Cholesterol, average decline” value ([1]; healthy volunteers (N = 8)) was “(only some 3-5%)”. The “fS-Chol.-HDL, average decline” value ([1]; healthy volunteers (N = 8), all periods and doses) was roughly 6%, the Diuretic effects ([1]; non-acute dose) was “Sodium decline in most” and the “fS-Urea, average decline” value ([1]; non-acute dose) was “some 7-8%”. For the same compound, the “CK, creatinine kinase, average reduction in values” ([1]; non-acute dose, N = 4) was “On average 25% reduction in values (N = 4)”, the “Bilirubin conj., average reduction in values” ([1]; non-acute dose, N = 6) was “On average 20% reduction in values. N = 6” and the “Bilirubin, average reduction in values” ([1]; non-acute dose, N = 6) was “On average some 20% reduction in values”. The “fS-Asat, average reduction in values” ([1]; non-acute dose, N = 6) was “On average 15-20% reduction”, the “fS-Fe, average reduction in values” ([1]; non-acute dose, N = 6) was “On average 15% reduction in values. N = 6” and the fS-Alat ([1]; non-acute dose, N = 8, when values were higher in the recommended range) was “improvement was observed, when values”. For the same compound, the “excitotoxity repetition by the private CRO” value (rat cortical neurons; confirmatory study, in line with first results) was “not statistically significant”.

With `O.O.O=C([O-])[C@H](O)CO.O=C([O-])[C@H](O)CO.[Ca+2]` [DGAcs, D-glyceric acid, calcium salt dehydrate] the “Headache after stopping twice a day administration” value ([1]; 4 day test) was “slight headache”, the “HDL, 4 day change” value [1, 2] was −5% and the “LDL, 4 day change” value [1, 2] was 2%. For the same compound, the “S-Afos, 4 day change” value [1, 2] was −2%, the “S-Alb, 4 day change” value [1, 2] was −2% and the “S-Amyl, 4 day change” value [1, 2] was 65%. The “S-Bil, 4 day change” value [1, 2] was −12.6% and −19%, the “S-Bil-Kj, 4 day change” value [1, 2] was −17% and the “S-CK, 4 day change” value [1, 2] was −22%. The “S-Cal, 4 day change” value [1, 2] was −2%, the “S-GT, 4 day change” value [1, 2] was 11% and the “S-K, 4 day change” value [1, 2] was −2%. The “S-LD (LDH), 4 day change” value [1, 2] was −4%, the “S-Mg, 4 day change” value [1, 2] was −2% and the “S-Na, 4 day change” value [1, 2] was −1%. For the same compound, the “S-Uraat, 4 day change” value [1, 2] was −9.9% and −5%, the “fS-Gluk, 4 day change” value [1, 2] was 2% and the “fS-Kol, 4 day change” value [1, 2] was −2%. The “fS-Krea, 4 day change” value [1, 2] was −4%, the “fS-Pi, 4 day change” value [1, 2] was 18% and the “fS-Transf, 4 day change” value [1, 2] was 10%. For the same compound, the “fS-Transferr.satur., 4 day change” value [1, 2] was −32%, the “fS-Urea, 4 day change” value [1, 2] was −7% and the “HDL, 4 day change” value [1, 3] was −4.5% and −3.3% and −9.1% and −5.9%. The “S-Afos, 4 day change” value [1, 3] was −2.1% and 0.0% and −5.8% and −6.3%, the “S-Alb, 4 day change” value [1, 3] was −2.2% and 0.0% and the “S-Cal, 4 day change” value [1, 3] was −1.7% and 0.0% and −2.2% and −2.5%. The “S-LD (LDH), 4 day change” value [1, 3] was −3.7% and −4.2% and −4.8%, the “S-Mg, 4 day change” value [1, 3] was −2.4% and 6.3% and −3.6% and 2.2% and the “S-Na, 4 day change” value [1, 3] was −1.4% and −2.1% and 0.7%. For the same compound, the “S-Uraat, 4 day change” value [1, 3] was −5.2% and −3.2% and −12.0% and −9.9%, the “fS-Kol, 4 day change” value [1, 3] was −1.6% and −5.7% and −6.4% and −3.2% and the “fS-Krea, 4 day change” value [1, 3] was −4.4% and −11.1% and −5.0% and −8.5%. The “AST/ALT (ratio) after treatment” value ([1]; S1, earlier 4 day test (zero control 1.36)) was 1.05, the AST/ALT [1, 4] was 1.10 and the S-Bil [1, 4] was 9.7. The S-Uraat [1, 4] was 246, the fS-Fe [1, 4] was 20.2 and the fS-Trigly [1, 4] was 1.73. The “average decline in blood urea” value ([1]; after 4 and 4.5 day administrations) was “approximately 9%” and the “protection against NMDA-induced excitotoxity (LDH viability)” value (rat cortical neurons; 25 μM NMDA and 50 μM NMDA groups, 1 h NMDA at 7 DIV + 24 h, indexed to 0 NMDA) was “very clear and significant protection”.
